# Experimental data from ChEMBL document CHEMBL3885881, “DrugMatrix”.
# Species: Rattus norvegicus
# Test: DrugMatrix - Regimen: Daily Repeat
# Assay type: toxicity, organism-based, Sprague-Dawley
# Parameters: regimen Daily Repeat, gender Male, age 6-8 weeks
# Settings: in vivo, po, route oral GAVAGE, vehicle 100 % WATER; for ABSOLUTE BASOPHIL / ABSOLUTE EOSINOPHIL / ABSOLUTE LYMPHOCYTE / ABSOLUTE MONOCYTE / ABSOLUTE SEGMENTED NEUTROPHIL / BASOPHIL / EOSINOPHIL / ERYTHROCYTE COUNT / HEMATOCRIT / HEMOGLOBIN / LEUKOCYTE COUNT / LYMPHOCYTE / MEAN CORPUSCULAR HEMOGLOBIN / MEAN CORPUSCULAR HEMOGLOBIN CONCENTRATION / MEAN CORPUSCULAR VOLUME / MONOCYTE / NEUTROPHIL / NUCLEATED RED BLOOD CELLS / PLATELET COUNT: tissue Blood; for ALANINE AMINOTRANSFERASE / ALBUMIN / ALKALINE PHOSPHATASE / ASPARTATE AMINOTRANSFERASE / BLOOD UREA NITROGEN / CARBON DIOXIDE / CHLORIDE / CHOLESTEROL / CREATINE PHOSPHOKINASE / CREATININE / GLUCOSE / LACTATE DEHYDROGENASE / LIPASE / PHOSPHORUS / POTASSIUM / SODIUM / TOTAL BILIRUBIN / TOTAL PROTEIN / URIC ACID: tissue Plasma
# [1] = 0 mg/kg, 72 h, dose level Control, time 3 day
# [2] = 0 mg/kg, 120 h, dose level Control, time 5 day
# [3] = 27 mg/kg, 72 h, dose level Low, time 3 day
compound,measurement,setting,value
CNNCc1ccc(C(=O)NC(C)C)cc1 [PROCARBAZINE],ABSOLUTE BASOPHIL,[1],0 CELLS/uL
same,ABSOLUTE EOSINOPHIL,[1],0 CELLS/uL
same,ABSOLUTE LYMPHOCYTE,[1],7802.17 CELLS/uL
same,ABSOLUTE MONOCYTE,[1],13.5 CELLS/uL
same,ABSOLUTE SEGMENTED NEUTROPHIL,[1],617.67 CELLS/uL
same,BASOPHIL,[1],0%
same,EOSINOPHIL,[1],0%
same,ERYTHROCYTE COUNT,[1],5.35 x10E6/uL
same,HEMATOCRIT,[1],33.02%
same,HEMOGLOBIN,[1],12.88 G/DL
same,LEUKOCYTE COUNT,[1],8.43 x10E3/uL
same,LYMPHOCYTE,[1],92.67%
same,MEAN CORPUSCULAR HEMOGLOBIN,[1],24.12 pg
same,MEAN CORPUSCULAR HEMOGLOBIN CONCENTRATION,[1],39.03 G/DL
same,MEAN CORPUSCULAR VOLUME,[1],61.8 fL
same,MONOCYTE,[1],0.17%
same,NEUTROPHIL,[1],7.17%
same,NUCLEATED RED BLOOD CELLS,[1],0 /100WBC
same,PLATELET COUNT,[1],1124.83 x10E3/uL
same,ALANINE AMINOTRANSFERASE,[1],54.17 u/L
same,ALBUMIN,[1],4.07 G/DL
same,ALKALINE PHOSPHATASE,[1],383.83 u/L
same,ASPARTATE AMINOTRANSFERASE,[1],82.17 u/L
same,BLOOD UREA NITROGEN,[1],13.67 mg/dL
same,CARBON DIOXIDE,[1],31 mmol/L
same,CHLORIDE,[1],100.83 MEQ/L
same,CHOLESTEROL,[1],65.17 mg/dL
same,CREATINE PHOSPHOKINASE,[1],228.33 u/L
same,CREATININE,[1],0.12 mg/dL
same,GLUCOSE,[1],148 mg/dL
same,LACTATE DEHYDROGENASE,[1],97.83 u/L
same,LIPASE,[1],9.17 u/L
same,PHOSPHORUS,[1],9.75 mg/dL
same,POTASSIUM,[1],5.85 MEQ/L
same,SODIUM,[1],147.02 MEQ/L
same,TOTAL BILIRUBIN,[1],0.18 mg/dL
same,TOTAL PROTEIN,[1],6.1 G/DL
same,URIC ACID,[1],0.5 mg/dL
same,ABSOLUTE BASOPHIL,[2],0 CELLS/uL
same,ABSOLUTE EOSINOPHIL,[2],0 CELLS/uL
same,ABSOLUTE LYMPHOCYTE,[2],10538 CELLS/uL
same,ABSOLUTE MONOCYTE,[2],15.83 CELLS/uL
same,ABSOLUTE SEGMENTED NEUTROPHIL,[2],762.83 CELLS/uL
same,BASOPHIL,[2],0%
same,EOSINOPHIL,[2],0%
same,ERYTHROCYTE COUNT,[2],5.49 x10E6/uL
same,HEMATOCRIT,[2],34.63%
same,HEMOGLOBIN,[2],13.72 G/DL
same,LEUKOCYTE COUNT,[2],11.32 x10E3/uL
same,LYMPHOCYTE,[2],92.67%
same,MEAN CORPUSCULAR HEMOGLOBIN,[2],24.97 pg
same,MEAN CORPUSCULAR HEMOGLOBIN CONCENTRATION,[2],39.57 G/DL
same,MEAN CORPUSCULAR VOLUME,[2],63.05 fL
same,MONOCYTE,[2],0.17%
same,NEUTROPHIL,[2],7.17%
same,NUCLEATED RED BLOOD CELLS,[2],0.17 /100WBC
same,PLATELET COUNT,[2],802 x10E3/uL
same,ALANINE AMINOTRANSFERASE,[2],50.5 u/L
same,ALBUMIN,[2],4.07 G/DL
same,ALKALINE PHOSPHATASE,[2],336.83 u/L
same,ASPARTATE AMINOTRANSFERASE,[2],81 u/L
same,BLOOD UREA NITROGEN,[2],14.17 mg/dL
same,CARBON DIOXIDE,[2],32 mmol/L
same,CHLORIDE,[2],98.33 MEQ/L
same,CHOLESTEROL,[2],69.17 mg/dL
same,CREATINE PHOSPHOKINASE,[2],253.33 u/L
same,CREATININE,[2],0.13 mg/dL
same,GLUCOSE,[2],153.67 mg/dL
same,LACTATE DEHYDROGENASE,[2],157 u/L
same,LIPASE,[2],9 u/L
same,PHOSPHORUS,[2],10.78 mg/dL
same,POTASSIUM,[2],6.11 MEQ/L
same,SODIUM,[2],144.57 MEQ/L
same,TOTAL BILIRUBIN,[2],0.15 mg/dL
same,TOTAL PROTEIN,[2],6.05 G/DL
same,URIC ACID,[2],0.73 mg/dL
same,ABSOLUTE BASOPHIL,[3],0 CELLS/uL
same,ABSOLUTE EOSINOPHIL,[3],0 CELLS/uL
same,ABSOLUTE LYMPHOCYTE,[3],5898 CELLS/uL
same,ABSOLUTE MONOCYTE,[3],47.67 CELLS/uL
same,ABSOLUTE SEGMENTED NEUTROPHIL,[3],121 CELLS/uL
same,BASOPHIL,[3],0%
same,EOSINOPHIL,[3],0%
same,ERYTHROCYTE COUNT,[3],5.61 x10E6/uL
same,HEMATOCRIT,[3],35.4%
same,HEMOGLOBIN,[3],13.53 G/DL
same,LEUKOCYTE COUNT,[3],6.07 x10E3/uL
same,LYMPHOCYTE,[3],97%
same,MEAN CORPUSCULAR HEMOGLOBIN,[3],24.13 pg
same,MEAN CORPUSCULAR HEMOGLOBIN CONCENTRATION,[3],38.2 G/DL
same,MEAN CORPUSCULAR VOLUME,[3],63.1 fL
same,MONOCYTE,[3],1%
same,NEUTROPHIL,[3],2%
same,NUCLEATED RED BLOOD CELLS,[3],0 /100WBC
same,PLATELET COUNT,[3],1005 x10E3/uL
same,ALANINE AMINOTRANSFERASE,[3],73.33 u/L
same,ALBUMIN,[3],4.33 G/DL
same,ALKALINE PHOSPHATASE,[3],429.33 u/L
same,ASPARTATE AMINOTRANSFERASE,[3],103.33 u/L
same,BLOOD UREA NITROGEN,[3],13.67 mg/dL
same,CARBON DIOXIDE,[3],31.67 mmol/L
same,CHLORIDE,[3],97.5 MEQ/L
same,CHOLESTEROL,[3],76.33 mg/dL
same,CREATINE PHOSPHOKINASE,[3],504 u/L
same,CREATININE,[3],0.1 mg/dL
same,GLUCOSE,[3],139.67 mg/dL
same,LACTATE DEHYDROGENASE,[3],137.67 u/L
same,LIPASE,[3],11.67 u/L
same,PHOSPHORUS,[3],9.73 mg/dL
same,POTASSIUM,[3],5.46 MEQ/L
same,SODIUM,[3],144.3 MEQ/L
same,TOTAL BILIRUBIN,[3],0.13 mg/dL
same,TOTAL PROTEIN,[3],6.27 G/DL
same,URIC ACID,[3],0.57 mg/dL
